For this assay, the target named is human JAK1 (a.a. 837-1142). As to the kind of experiment: In vitro JAK kinase assay (HTRF, phosphorylation of a biotinylated peptide), JAK1. In kind it is biochemical. To be noted: measured at 1 mM ATP; JAK2 IC50 / JAK1 IC50. The method in brief:
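N-terminal His-tagged catalytic domains, baculovirus-expressed in insect cells, phosphorylated a biotinylated peptide for 1 hr at room temperature. EDTA stop was followed by SA-APC and Eu-Py20 antibody for 40 minutes, with phosphopeptide read by HTRF.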

For the compound `N#CCC1(n2cc(-c3ncnc4[nH]ccc34)cn2)CN(C2CCN(C(=O)C3CCCC3)CC2)C1` [Example 101, {1-[1-(cyclopentylcarbonyl)piperidin-4-yl]-3-[4-(7H-pyrrolo[2,3-d]pyrimidin-4-yl)-1H-pyrazol-1-yl]azetidin-3-yl}acetonitrile], the “IC50 Ratio JAK2/JAK1” value was 8.3.

For `Cc1noc(C)c1S(=O)(=O)N1CCC(N2CC(CC#N)(n3cc(-c4ncnc5[nH]ccc45)cn3)C2)CC1` [Example 260, {1-{1-[(3,5-dimethylisoxazol-4-yl)sulfonyl]piperidin-4-yl}-3-[4-(7H-pyrrolo[2,3-d]pyrimidin-4-yl)-1H-pyrazol-1-yl]azetidin-3-yl}acetonitrile], the “IC50 Ratio JAK2/JAK1” value is 7.1.

Take `Cn1c(NC(=O)N2CCC(N3CC(CC#N)(n4cc(-c5ncnc6[nH]ccc56)cn4)C3)CC2)nc2ccccc21` [Example 194, 4-{3-(cyanomethyl)-3-[4-(7H-pyrrolo[2,3-d]pyrimidin-4-yl)-1H-pyrazol-1-yl]azetidin-1-yl}-N-(1-methyl-1H-benzimidazol-2-yl)piperidine-1-carboxamide]: the “IC50 Ratio JAK2/JAK1” value stood at 2.2.

`COc1cc(F)cc(C(=O)N2CCC(N3CC(CC#N)(n4cc(-c5ncnc6[nH]ccc56)cn4)C3)CC2)c1` [Example 36, {1-[1-(3-fluoro-5-methoxybenzoyl)piperidin-4-yl]-3-[4-(7H-pyrrolo[2,3-d]pyrimidin-4-yl)-1H-pyrazol-1-yl]azetidin-3-yl}acetonitrile]: the “IC50 Ratio JAK2/JAK1” value came to 2.3.

Regarding `CN(C)c1ccc(C(=O)N2CCC(N3CC(CC#N)(n4cc(-c5ncnc6[nH]ccc56)cn4)C3)CC2)cc1C#N` [Example 59, 5-[(4-{3-(cyanomethyl)-3-[4-(7H-pyrrolo[2,3-d]pyrimidin-4-yl)-1H-pyrazol-1-yl]azetidin-1-yl}piperidin-1yl)carbonyl]-2-(dimethylamino)benzonitrile], the “IC50 Ratio JAK2/JAK1” value is on record as 4.6.

For `CCOC(=O)N1CCC(N2CC(CC#N)(n3cc(-c4ncnc5[nH]ccc45)cn3)C2)CC1` [Example 388, ethyl 4-{3-(cyanomethyl)-3-[4-(7H-pyrrolo[2,3-d]pyrimidin-4-yl)-1H-pyrazol-1-yl]azetidin-1-yl}piperidine-1-carboxylate], the “IC50 Ratio JAK2/JAK1” value amounted to 7.6.

In the case of `N#CCC1(n2ccc(-c3ncnc4[nH]ccc34)c2)CN(C2CCN(C(=O)c3cccs3)CC2)C1` [Example 271, {3-[3-(7H-pyrrolo[2,3-d]pyrimidin-4-yl)-1H-pyrrol-1-yl]-1-[1-(2-thienylcarbonyl)piperidin-4-yl]azetidin-3-yl}acetonitrile], the “IC50 Ratio JAK2/JAK1” value came out at 7.8.

As for `N#CCC1(n2cc(-c3ncnc4[nH]ccc34)cn2)CN(C2CCN(C(=O)Nc3cccc(C(F)(F)F)c3)CC2)C1` [Example 166, 4-{3-(cyanomethyl)-3-[4-(7H-pyrrolo[2,3-d]pyrimidin-4-yl)-1H-pyrazol-1-yl]azetidin-1-yl}-N-[3-(trifluoromethyl)phenyl]piperidine-1-carboxamide], the “IC50 Ratio JAK2/JAK1” value is 5.5.

With `N#CCC1(n2ccc(-c3ncnc4[nH]ccc34)c2)CN(C2CCN(C(=O)c3c(F)cc(C#N)cc3F)CC2)C1` [Example 265, 4-[(4-{3-(cyanomethyl)-3-[3-(7H-pyrrolo[2,3-d]pyrimidin-4-yl)-1H-pyrrol-1-yl]azetidin-1-yl}piperidin-1-yl)carbonyl]-3,5-difluorobenzonitrile], the “IC50 Ratio JAK2/JAK1” value stood at 6.6.

For `COc1c(F)c(F)cc(C(=O)N2CCC(N3CC(CC#N)(n4cc(-c5ncnc6[nH]ccc56)cn4)C3)CC2)c1F` [Example 32, {3-[4-(7H-pyrrolo[2,3-d]pyrimidin-4-yl)-1H-pyrazol-1-yl]-1-[1-(2,4,5-trifluoro-3-methoxybenzoyl)piperidin-4-yl]azetidin-3-yl}acetonitrile], the “IC50 Ratio JAK2/JAK1” value is listed as 4.4.

In the case of `N#CCC1(n2cc(-c3ncnc4[nH]ccc34)cn2)CN(C2CCN(C(=O)c3cccc(Cl)n3)CC2)C1` [Example 13, {1-{1-[(6-chloropyridin-2-yl)carbonyl]piperidin-4-yl}-3-[4-(7H-pyrrolo[2,3-d]pyrimidin-4-yl)-1H-pyrazol-1-yl]azetidin-3-yl}acetonitrile], the “IC50 Ratio JAK2/JAK1” value is listed as 5.3.

For `N#CCC1(n2cc(-c3ncnc4[nH]ccc34)cn2)CN(C2CCN(Cc3cccc(C#N)c3)CC2)C1` [Example 223, 3-[(4-{3-(cyanomethyl)-3-[4-(7H-pyrrolo[2,3-d]pyrimidin-4-yl)-1H-pyrazol-1-yl]azetidin-1-yl}piperidin-1-yl)methyl]benzonitrile], the “IC50 Ratio JAK2/JAK1” value came to 5.9.

On to `N#CCC1(n2cc(-c3ncnc4[nH]ccc34)cn2)CN(C2CCN(Cc3c(Cl)cncc3Cl)CC2)C1` [Example 237, {1-{1-[(3,5-dichloropyridin-4-yl)methyl]piperidin-4-yl}-3-[4-(7H-pyrrolo[2,3-d]pyrimidin-4-yl)-1H-pyrazol-1-yl]azetidin-3-yl}acetonitrile], for which the “IC50 Ratio JAK2/JAK1” value was determined as 2.3.

`N#CCC1(n2cc(-c3ncnc4[nH]ccc34)cn2)CN(C2CCN(S(=O)(=O)c3cccc(C#N)c3)CC2)C1` [Example 248, 3-[(4-{3-(cyanomethyl)-3-[4-(7H-pyrrolo[2,3-d]pyrimidin-4-yl)-1H-pyrazol-1-yl]azetidin-1-yl}piperidin-1-yl)sulfonyl]benzonitrile]: the “IC50 Ratio JAK2/JAK1” value stood at 5.2.

Take `N#CCC1(n2cc(-c3ncnc4[nH]ccc34)cn2)CN(C2CCN(C(=O)c3ccc(-c4nc5ccccc5o4)cc3)CC2)C1` [Example 136, {1-{1-[4-(1,3-benzoxazol-2-yl)benzoyl]piperidin-4-yl}-3-[4-(7H-pyrrolo[2,3-d]pyrimidin-4-yl)-1H-pyrazol-1-yl]azetidin-3-yl}acetonitrile]: the “IC50 Ratio JAK2/JAK1” value came out at 5.6.

As to `N#CCC1(n2cc(-c3ncnc4[nH]ccc34)cn2)CN(C2CCN(C(=O)c3cc(F)c(F)c(F)c3F)CC2)C1` [Example 54, {3-[4-(7H-pyrrolo[2,3-d]pyrimidin-4-yl)-1H-pyrazol-1-yl]-1-[1-(2,3,4,5-tetrafluorobenzoyl)piperidin-4-yl]azetidin-3-yl}acetonitrile], the “IC50 Ratio JAK2/JAK1” value is 9.1.

Regarding `COc1ccc(C(=O)N2CCC(N3CC(CC#N)(n4cc(-c5ncnc6[nH]ccc56)cn4)C3)CC2)cc1C#N` [Example 55, 5-[(4-{3-(cyanomethyl)-3-[4-(7H-pyrrolo[2,3-d]pyrimidin-4-yl)-1H-pyrazol-1-yl]azetidin-1-yl}piperidin-1-yl)carbonyl]-2-methoxybenzonitrile], the “IC50 Ratio JAK2/JAK1” value was 7.5.

As for `N#CCC1(n2cc(-c3ncnc4[nH]ccc34)cn2)CN(C2CCN(C(=O)c3ccccc3C#N)CC2)C1` [Example 10, 2-[(4-{3-(cyanomethyl)-3-[4-(7H-pyrrolo[2,3-d]pyrimidin-4-yl)-1H-pyrazol-1-yl]azetidin-1-yl}piperidin-1-yl)carbonyl]benzonitrile], the “IC50 Ratio JAK2/JAK1” value was 4.4.

Regarding `COc1cccc(F)c1CN1CCC(N2CC(CC#N)(n3cc(-c4ncnc5[nH]ccc45)cn3)C2)CC1` [Example 218, {1-[1-(2-fluoro-6-methoxybenzyl)piperidin-4-yl]-3-[4-(7H-pyrrolo[2,3-d]pyrimidin-4-yl)-1H-pyrazol-1-yl]azetidin-3-yl}acetonitrile], the “IC50 Ratio JAK2/JAK1” value turned out to be 2.6.

Turning to `N#CCC1(n2ccc(-c3ncnc4[nH]ccc34)c2)CN(C2CCN(C(=O)c3ccc(C(F)(F)F)cc3F)CC2)C1` [Example 272, {1-{1-[2-fluoro-4-(trifluoromethyl)benzoyl]piperidin-4-yl}-3-[3-(7H-pyrrolo[2,3-d]pyrimidin-4-yl)-1H-pyrrol-1-yl]azetidin-3-yl}acetonitrile], the “IC50 Ratio JAK2/JAK1” value was determined as 6.5.

Take `N#CCC1(n2cc(-c3ncnc4[nH]ccc34)cn2)CN(C2CCN(C(=O)Nc3cscc3Br)CC2)C1` [Example 159, N-(4-bromo-3-thienyl)-4-{3-(cyanomethyl)-3-[4-(7H-pyrrolo[2,3-d]pyrimidin-4-yl)-1H-pyrazol-1-yl]azetidin-1-yl}piperidine-1-carboxamide]: the “IC50 Ratio JAK2/JAK1” value worked out at 15.0.

In the case of `N#CCC1(n2cc(-c3ncnc4[nH]ccc34)cn2)CN(C2CCN(Cc3cc(Br)nc(Br)c3)CC2)C1` [Example 225, {1-{1-[(2,6-dibromopyridin-4-yl)methyl]piperidin-4-yl}-3-[4-(7H-pyrrolo[2,3-d]pyrimidin-4-yl)-1H-pyrazol-1-yl]azetidin-3-yl}acetonitrile], the “IC50 Ratio JAK2/JAK1” value is 3.8.

Consider `N#CCC1(n2cc(-c3ncnc4[nH]ccc34)cn2)CN(C2CCN(C(=O)c3csc4ccccc34)CC2)C1` [Example 96, {1-[1-(1-benzothien-3-ylcarbonyl)piperidin-4-yl]-3-[4-(7H-pyrrolo[2,3-d]pyrimidin-4-yl)-1H-pyrazol-1-yl]azetidin-3-yl} acetonitrile], for which the “IC50 Ratio JAK2/JAK1” value was found to be 0.5.

`N#CCC1(n2cc(-c3ncnc4[nH]ccc34)cn2)CN(C2CCN(C(=O)c3cc4cccc(C(F)(F)F)c4s3)CC2)C1` [Example 95, [3-[4-(7H-pyrrolo[2,3-d]pyrimidin-4-yl)-1H-pyrazol-1-yl]-1-(1-{[7-(trifluoromethyl)-1-benzothien-2-yl]carbonyl}piperidin-4-yl)azetidin-3-yl]acetonitrile]: the “IC50 Ratio JAK2/JAK1” value was 2.7.

Turning to `CC1CC(N2CC(CC#N)(n3cc(-c4ncnc5[nH]ccc45)cn3)C2)CCN1Cc1c(F)cccc1Cl` (single isomer, unassigned) [Example 244, {1-[1-(2-chloro-6-fluorobenzyl)-2-methylpiperidin-4-yl]-3-[4-(7H-pyrrolo[2,3-d]pyrimidin-4-yl)-1H-pyrazol-1-yl]azetidin-3-yl}acetonitrile], the “IC50 Ratio JAK2/JAK1” value is reported as 1.8.

Regarding `COc1cccc(F)c1C(=O)N1CCC(N2CC(CC#N)(n3cc(-c4ncnc5[nH]ccc45)cn3)C2)CC1` [Example 39, {1-[1-(2-fluoro-6-methoxybenzoyl)piperidin-4-yl]-3-[4-(7H-pyrrolo[2,3-d]pyrimidin-4-yl)-1H-pyrazol-1-yl]azetidin-3-yl}acetonitrile], the “IC50 Ratio JAK2/JAK1” value is 3.2.
